Measured values as given in ChEMBL document CHEMBL5338723, “Emerging Target-Directed Approaches for the Treatment and Diagnosis of Microbial Infections” (J Med Chem, 2023).

Assays:
Escherichia coli [1] = assay: Antimicrobial activity against Escherichia coli IR57 assessed as microbial growth inhibition; type: functional
Escherichia coli [2] = assay: Antimicrobial activity against Escherichia coli Swiss 15 assessed as microbial growth inhibition; type: functional
Escherichia coli [3] = assay: Antimicrobial activity against Escherichia coli NCTC 13846 assessed as microbial growth inhibition; type: functional
Escherichia coli [4] = assay: Antimicrobial activity against Escherichia coli AR0493 assessed as microbial growth inhibition; type: functional
Escherichia coli [5] = assay: Antimicrobial activity against Escherichia coli NCTC 13462 assessed as microbial growth inhibition; type: functional
Staphylococcus aureus [6] = assay: Antimicrobial activity against vancomycin intermediate Staphylococcus aureus assessed as microbial growth inhibition; type: functional
Escherichia coli [7] = assay: Antimicrobial activity against Escherichia coli BW25113 assessed as microbial growth inhibition; type: functional
Escherichia coli [8] = assay: Antimicrobial activity against Escherichia coli NCTC 13441 assessed as microbial growth inhibition; type: functional
Enterococcus faecium = assay: Antimicrobial activity against vancomycin-resistant Enterococcus faecium ATCC 51559 assessed as microbial growth inhibition; type: functional
Escherichia coli [9] = assay: Antimicrobial activity against Escherichia coli ATCC BAA-2340 assessed as microbial growth inhibition; type: functional
Escherichia coli [10] = assay: Antimicrobial activity against Escherichia coli ATCC BAA-2469 assessed as microbial growth inhibition; type: functional
Escherichia coli [11] = assay: Antimicrobial activity against Escherichia coli B808 assessed as microbial growth inhibition; type: functional
Escherichia coli [12] = assay: Antimicrobial activity against Escherichia coli UTI89 assessed as microbial growth inhibition; type: functional
Escherichia coli [13] = assay: Antimicrobial activity against Escherichia coli AR0494 assessed as microbial growth inhibition; type: functional
Escherichia coli [14] = assay: Antimicrobial activity against Escherichia coli AR089 assessed as microbial growth inhibition; type: functional
Escherichia coli [15] = assay: Antimicrobial activity against Escherichia coli AR055 assessed as microbial growth inhibition; type: functional
Escherichia coli [16] = assay: Antimicrobial activity against Escherichia coli Swiss 13 assessed as microbial growth inhibition; type: functional
Acinetobacter baumannii [17] = assay: Antimicrobial activity against Acinetobacter baumannii ACC00527 assessed as microbial growth inhibition; type: functional
Escherichia coli [18] = assay: Antimicrobial activity against Escherichia coli IR45 assessed as microbial growth inhibition; type: functional
Staphylococcus aureus [19] = assay: Antimicrobial activity against methicillin-resistant Staphylococcus aureus ATCC 33591 assessed as microbial growth inhibition; type: functional
Acinetobacter baumannii [20] = assay: Antimicrobial activity against Acinetobacter baumannii GS2AB1 assessed as microbial growth inhibition; type: functional
Enterococcus faecalis = assay: Antimicrobial activity against vancomycin-resistant Enterococcus faecalis ATCC 51575 assessed as microbial growth inhibition; type: functional
Escherichia coli [21] = assay: Antimicrobial activity against Escherichia coli AR0349 assessed as microbial growth inhibition; type: functional
Escherichia coli [22] = assay: Antimicrobial activity against Escherichia coli JW0451-2 assessed as microbial growth inhibition; type: functional
Acinetobacter baumannii [23] = assay: Antimicrobial activity against Acinetobacter baumannii Naval-81 assessed as microbial growth inhibition; type: functional
Escherichia coli [24] = assay: Antimicrobial activity against Escherichia coli AR0150 assessed as microbial growth inhibition; type: functional
Escherichia coli [25] = assay: Antimicrobial activity against Escherichia coli Swiss 2 (AF45) assessed as microbial growth inhibition; type: functional
Escherichia coli [26] = assay: Antimicrobial activity against Escherichia coli ExPEC H5 assessed as microbial growth inhibition; type: functional
Escherichia coli [27] = assay: Antimicrobial activity against Escherichia coli AR0137 assessed as microbial growth inhibition; type: functional
Escherichia coli [28] = assay: Antimicrobial activity against Escherichia coli AR0350 assessed as microbial growth inhibition; type: functional
Escherichia coli [29] = assay: Antimicrobial activity against Escherichia coli B096a assessed as microbial growth inhibition; type: functional
Escherichia coli [30] = assay: Antimicrobial activity against Escherichia coli AR0114 assessed as microbial growth inhibition; type: functional
Escherichia coli [31] = assay: Antimicrobial activity against Escherichia coli H4/5 assessed as microbial growth inhibition; type: functional
Escherichia coli [32] = assay: Antimicrobial activity against Escherichia coli ATCC 25922 assessed as microbial growth inhibition; type: functional
Escherichia coli [33] = assay: Antimicrobial activity against Escherichia coli AR0346 assessed as microbial growth inhibition; type: functional
Escherichia coli [34] = assay: Antimicrobial activity against Escherichia coli IR3 assessed as microbial growth inhibition; type: functional
Staphylococcus aureus [35] = assay: Antimicrobial activity against Staphylococcus aureus assessed as microbial growth inhibition; type: functional
Escherichia coli [36] = assay: Antimicrobial activity against Escherichia coli assessed as microbial growth inhibition; type: functional
Proteus vulgaris = assay: Antimicrobial activity against Proteus vulgaris assessed as microbial growth inhibition; type: functional
Salmonella typhi = assay: Antimicrobial activity against Salmonella enterica subsp. enterica serovar Typhi assessed as microbial growth inhibition; type: functional
Pseudomonas aeruginosa = assay: Antibacterial activity against Pseudomonas aeruginosa assessed as microbial growth inhibition; type: functional
[37] = test system: Mycobacterium tuberculosis; assay: Antimicrobial activity against Mycobacterium tuberculosis H37Rv assessed as microbial growth inhibition; type: functional
[38] = Cytotoxicity against human HepG2 cells assessed as lethal dose by CellTox Green cytotoxicity assay; type: toxicity, cell-based; conditions: read-out: LD50 (the source's name)
Escherichia coli [39] = assay: Antibacterial activity against Escherichia coli UTI89 assessed as inhibition of bacterial growth; type: functional
Escherichia coli [40] = assay: Antibacterial activity against Escherichia coli MG1655 expressing NDM-1 assessed as inhibition of bacterial growth; type: functional
Escherichia coli [41] = assay: Antimicrobial activity against Escherichia coli UTI89 expressing NDM-1 assessed as microbial growth inhibition in the presence of bathocuproinedisulfonic acid; type: functional
Escherichia coli [42] = assay: Antibacterial activity against Escherichia coli MG1655 expressing CMY-2 assessed as inhibition of bacterial growth; type: functional
Escherichia coli [43] = assay: Antimicrobial activity against Escherichia coli MG1655 expressing CMY-2 assessed as microbial growth inhibition in the presence of bathocuproinedisulfonic acid; type: functional
[44] = Cytotoxicity against human CCD 19Lu cells assessed as lethal dose by CellTox Green cytotoxicity assay; type: toxicity, cell-based; conditions: read-out: LD50 (the source's name)
Escherichia coli [45] = assay: Antimicrobial activity against Escherichia coli UTI89 expressing CTX-M-1 assessed as microbial growth inhibition in the presence of bathocuproinedisulfonic acid; type: functional
Escherichia coli [46] = assay: Antibacterial activity against Escherichia coli UTI89 expressing CMY-2 assessed as inhibition of bacterial growth; type: functional
Escherichia coli [47] = assay: Antimicrobial activity against Escherichia coli UTI89 expressing CMY-2 assessed as microbial growth inhibition in the presence of bathocuproinedisulfonic acid; type: functional
Escherichia coli [48] = assay: Antimicrobial activity against Escherichia coli MG1655 expressing CTX-M-1 assessed as microbial growth inhibition in the presence of bathocuproinedisulfonic acid; type: functional
Escherichia coli [49] = assay: Antibacterial activity against Escherichia coli UTI89 expressing NDM-1 assessed as inhibition of bacterial growth; type: functional
Escherichia coli [50] = assay: Antibacterial activity against Escherichia coli MG1655 expressing CTX-M-1 assessed as inhibition of bacterial growth; type: functional
Escherichia coli [51] = assay: Antimicrobial activity against Escherichia coli MG1655 expressing TEM-1 assessed as microbial growth inhibition in the presence of bathocuproinedisulfonic acid; type: functional
Escherichia coli [52] = assay: Antibacterial activity against Escherichia coli UTI89 expressing CTX-M-1 assessed as inhibition of bacterial growth; type: functional
Escherichia coli [53] = assay: Antimicrobial activity against Escherichia coli MG1655 expressing NDM-1 assessed as microbial growth inhibition in the presence of bathocuproinedisulfonic acid; type: functional
Escherichia coli [54] = assay: Antimicrobial activity against Escherichia coli UTI89 expressing TEM-1 assessed as microbial growth inhibition in the presence of bathocuproinedisulfonic acid; type: functional
Escherichia coli [55] = assay: Antibacterial activity against Escherichia coli MG1655 assessed as inhibition of bacterial growth; type: functional

CN[C@H](CC(C)C)C(=O)N[C@H]1C(=O)N[C@@H](CC(N)=O)C(=O)N[C@H]2C(=O)N[C@H]3C(=O)N[C@H](C(=O)N[C@H](C(=O)O)c4cc(O)cc(O)c4-c4cc3ccc4O)[C@H](O)c3ccc(c(Cl)c3)Oc3cc2cc(c3O[C@@H]2O[C@H](CO)[C@@H](O)[C@H](O)[C@H]2O[C@H]2C[C@](C)(N)[C@H](O)[C@H](C)O2)Oc2ccc(cc2Cl)[C@H]1O [VANCOMYCIN]
250 µM: MIC (Enterococcus faecalis)
0.63 µM: MIC (Staphylococcus aureus [19])
64 µg/mL: MIC (Escherichia coli [1]) | MIC (Escherichia coli [2]) | MIC (Escherichia coli [3]) | MIC (Escherichia coli [4]) | MIC (Escherichia coli [5]) | MIC (Escherichia coli [7]) | MIC (Escherichia coli [8]) | MIC (Escherichia coli [9]) | MIC (Escherichia coli [10]) | MIC (Escherichia coli [11]) | MIC (Escherichia coli [12]) | MIC (Escherichia coli [13]) | MIC (Escherichia coli [14]) | MIC (Escherichia coli [15]) | MIC (Escherichia coli [16]) | MIC (Acinetobacter baumannii [17]) | MIC (Escherichia coli [18]) | MIC (Acinetobacter baumannii [20]) | MIC (Escherichia coli [21]) | MIC (Escherichia coli [22]) | MIC (Acinetobacter baumannii [23]) | MIC (Escherichia coli [24]) | MIC (Escherichia coli [25]) | MIC (Escherichia coli [26]) | MIC (Escherichia coli [27]) | MIC (Escherichia coli [28]) | MIC (Escherichia coli [29]) | MIC (Escherichia coli [30]) | MIC (Escherichia coli [31]) | MIC (Escherichia coli [32]) | MIC (Escherichia coli [33]) | MIC (Escherichia coli [34])
13 µM: MIC (Staphylococcus aureus [6])
750 µM: MIC (Enterococcus faecium)

O=c1[nH]c2ccccc2[nH]/c1=N/N[C@@H]1O[C@H](CO)[C@@H](O)[C@H]1O
7.8 µM: MIC (Salmonella typhi)
2.07 µM: MIC (Staphylococcus aureus [35]) | MIC (Escherichia coli [36]) | MIC (Proteus vulgaris) | MIC (Pseudomonas aeruginosa)
0.65 µM: MIC [37]

O=C(Cc1ccccc1)N[C@@H]1C(=O)N2C(C(=O)O)=C(CSc3ccccn3)CS[C@H]12
> 140 µM: MIC (Escherichia coli [41]) | MIC (Escherichia coli [43]) | MIC (Escherichia coli [45]) | MIC (Escherichia coli [47]) | MIC (Escherichia coli [48]) | MIC (Escherichia coli [51]) | MIC (Escherichia coli [53]) | MIC (Escherichia coli [54])
> 500 µM: CC50 [38] | CC50 [44]
17.5 µM: MIC (Escherichia coli [40]) | MIC (Escherichia coli [42]) | MIC (Escherichia coli [46]) | MIC (Escherichia coli [49]) | MIC (Escherichia coli [50]) | MIC (Escherichia coli [52])
35 µM: MIC (Escherichia coli [39]) | MIC (Escherichia coli [55])
